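Method: 48-hour compound exposure of cells in 96-well plates, five concentrations, linear interpolation of endpoints. GI50 = concentration required for 50% inhibition of growth.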 Active and inactive are the calls of the source. Rule as the data show it: active = GI50 up to about 1.1 µM and inactive = higher.
Experiments:
Assay in all cases: inhibition of tumour cell growth, NCI panel, 48 h
[1] = system: HCT-15
[2] = system: KM12
[3] = system: NCI-H23
[4] = system: OVCAR-8
[5] = system: UO-31
[6] = system: A549
[7] = system: NCI-H522
[8] = system: EKVX
[9] = system: RPMI-8226
[10] = system: SK-OV-3
[11] = system: LOX IMVI
[12] = system: RXF 393
[13] = system: SR
[14] = system: HOP-92
[15] = system: SF-268

For `CC(C)(C)C1CCN(C(=O)c2ccccc2)CC1`, the GI50 [1] was 57.5 µM, the GI50 [2] was > 100 µM (inactive) and the GI50 [3] was > 100 µM (inactive). For the same compound, the GI50 [4] was > 100 µM (inactive), the GI50 [5] was > 100 µM (inactive) and the GI50 [6] was 90.6 µM (inactive). For the same compound, the GI50 [7] was 62.7 µM (inactive), the GI50 [8] was > 100 µM (inactive) and the GI50 [9] was 46 µM (inactive). For the same compound, the GI50 [10] was > 100 µM (inactive), the GI50 [11] was > 100 µM (inactive) and the GI50 [12] was 76 µM (inactive). For the same compound, the GI50 [13] was 64.6 µM (inactive).
For `[O-][S+]1Nc2c(Cl)cc(Cl)c(Cl)c2S1` (centres undefined), the GI50 [1] was 44.1 µM, the GI50 [2] was > 100 µM (inactive) and the GI50 [14] was 35.2 µM (inactive). For the same compound, the GI50 [3] was > 100 µM (inactive), the GI50 [4] was > 100 µM (inactive) and the GI50 [15] was > 100 µM (inactive). The GI50 [5] was 86.9 µM (inactive), the GI50 [6] was > 100 µM (inactive) and the GI50 [7] was 78.9 µM (inactive). For the same compound, the GI50 [8] was > 100 µM (inactive), the GI50 [9] was > 100 µM (inactive) and the GI50 [10] was > 100 µM (inactive). For the same compound, the GI50 [11] was 78.9 µM (inactive), the GI50 [12] was > 100 µM (inactive) and the GI50 [13] was 43.1 µM (inactive).
`O=c1[nH]c2cc([N+](=O)[O-])ccc2nc1/C(=N\NO)C(O)c1ccc([N+](=O)[O-])cc1` (centres undefined) was tested, and the GI50 [1] was 35.2 µM, the GI50 [2] was 65 µM (inactive) and the GI50 [14] was > 100 µM (inactive). For the same compound, the GI50 [3] was > 100 µM (inactive), the GI50 [4] was > 100 µM (inactive) and the GI50 [15] was > 100 µM (inactive). The GI50 [5] was > 100 µM (inactive), the GI50 [6] was > 100 µM (inactive) and the GI50 [7] was 44.7 µM (inactive). For the same compound, the GI50 [9] was > 100 µM (inactive), the GI50 [10] was > 100 µM (inactive) and the GI50 [11] was 85.1 µM (inactive). For the same compound, the GI50 [12] was > 100 µM (inactive) and the GI50 [13] was > 100 µM (inactive).
With `O=C(O)CCSC(=O)Nc1ccccc1F` the GI50 [1] was > 100 µM, the GI50 [2] was > 100 µM (inactive) and the GI50 [3] was > 100 µM (inactive). The GI50 [15] was > 100 µM (inactive), the GI50 [5] was > 100 µM (inactive) and the GI50 [6] was > 100 µM (inactive). The GI50 [7] was > 100 µM (inactive), the GI50 [8] was > 100 µM (inactive) and the GI50 [9] was > 100 µM (inactive). The GI50 [11] was > 100 µM (inactive), the GI50 [12] was > 100 µM (inactive) and the GI50 [13] was > 100 µM (inactive).
With `O=C1NC(=O)C(=O)C(c2nc3ccccc3s2)C1=O` the GI50 [1] was > 100 µM, the GI50 [2] was > 100 µM (inactive) and the GI50 [14] was > 100 µM (inactive). The GI50 [3] was > 100 µM (inactive), the GI50 [4] was > 100 µM (inactive) and the GI50 [15] was > 100 µM (inactive). The GI50 [5] was > 100 µM (inactive), the GI50 [6] was > 100 µM (inactive) and the GI50 [7] was > 100 µM (inactive). For the same compound, the GI50 [8] was > 100 µM (inactive), the GI50 [10] was > 100 µM (inactive) and the GI50 [12] was > 100 µM (inactive). For the same compound, the GI50 [13] was > 100 µM (inactive).
With `O=C(CC(=O)c1cccc([N+](=O)[O-])c1)C(=O)Nc1nc([N+](=O)[O-])cs1` the GI50 [1] was 79.6 µM, the GI50 [2] was > 100 µM (inactive) and the GI50 [14] was > 100 µM (inactive). For the same compound, the GI50 [3] was > 100 µM (inactive), the GI50 [4] was > 100 µM (inactive) and the GI50 [15] was > 100 µM (inactive). For the same compound, the GI50 [5] was > 100 µM (inactive), the GI50 [6] was > 100 µM (inactive) and the GI50 [7] was 33.3 µM (inactive). The GI50 [8] was > 100 µM (inactive), the GI50 [9] was 65 µM (inactive) and the GI50 [10] was > 100 µM (inactive). The GI50 [11] was > 100 µM (inactive), the GI50 [12] was > 100 µM (inactive) and the GI50 [13] was 83 µM (inactive).
For `COC(=O)CCC(NC(=S)N/N=C/c1cccs1)C(=O)OC` (centres undefined), the GI50 [1] was > 100 µM, the GI50 [2] was > 100 µM (inactive) and the GI50 [14] was > 100 µM (inactive). The GI50 [3] was > 100 µM (inactive), the GI50 [4] was > 100 µM (inactive) and the GI50 [15] was > 100 µM (inactive). The GI50 [5] was > 100 µM (inactive), the GI50 [6] was > 100 µM (inactive) and the GI50 [7] was > 100 µM (inactive). The GI50 [8] was > 100 µM (inactive), the GI50 [10] was > 100 µM (inactive) and the GI50 [11] was > 100 µM (inactive). The GI50 [12] was > 100 µM (inactive) and the GI50 [13] was > 100 µM (inactive).
For `CC(C)(C)[C@H]1CC[C@@](O)(c2ccccc2)CC1.CC(C)(C)[C@H]1CC[C@](O)(c2ccccc2)CC1`, the GI50 [1] was 23.9 µM, the GI50 [2] was 22.8 µM (inactive) and the GI50 [3] was 30.1 µM (inactive). The GI50 [4] was 18.7 µM (inactive), the GI50 [5] was 31.5 µM (inactive) and the GI50 [6] was 26 µM (inactive). The GI50 [7] was 23.4 µM (inactive), the GI50 [8] was 23.1 µM (inactive) and the GI50 [9] was 21.1 µM (inactive). The GI50 [10] was 72.8 µM (inactive), the GI50 [11] was 15.3 µM (inactive) and the GI50 [12] was 18.6 µM (inactive). The GI50 [13] was 15.2 µM (inactive).
